# Results taken from publication PMC11087509, “Multimodal binding and inhibition of bacterial ribosomes by the antimicrobial peptides Api137 and Api88” (Nature Communications, 2024).
# Where a SMILES comes first, the peptide text is derived from it. The star is where a group is joined. Orn(α-tetramethylguanidino) = CN(C)C(=N[C@@H](CCCN)C(=O)*)N(C)C
# Assays:
# purified 70S ribosomes = experiment: In vitro transcription-translation (ITT) of sfGFP; format: biochemical, E. coli
# Description: sfGFP was expressed using the NEB PureExpress Delta RF123 Kit (New England Biolabs). The sfGFP DNA template encoding for an UAG stop codon was amplified from the pY71sfGFP plasmid by PCR using sfGFP primers (sfGFP fwd: […] and sfGFP rev: […]). The release factor RF1 included in the kit was 50-fold diluted (v/v) in freshly prepared 1x Pure System Buffer (PSB, 9 mmol/L magnesium acetate, 5 mmol/L K3PO4 (pH 7.3), 95 mmol/L potassium glutamate, 5 mmol/L NH4Cl, 0.5 mmol/L CaCl2, 1 mmol/L spermidine, 8 mmol/L putrescine, 1 mmol/L DTT). sfGFP was expressed in a freshly prepared mixture of kit solution A (2 µL), kit solution B (1.5 µL), 50-fold diluted RF1 (0.5 µL), sfGFP template (0.1325 pmol, 35 ng) or water as control (0.25 µL), PSB (0.25 µL), and a PrAMP (50, 5, 0.05 or 0 µmol/L) dissolved in water (0.5 µL). The reaction mixture was transferred to a black 384-well plate (Greiner Bio-One GmbH, Frickenhausen, Germany), covered with a lid, and incubated in a microplate reader (Gemini EM, Molecular Devices) at 37 °C for two hours. Fluorescence was recorded every 10 min (λexc = 485 nm, λem = 535 nm).
# [1] = test system: ribosome (arrest at UAG stop codon of model yrbA ORF); experiment: In vitro toeprinting analysis (yrbA-fs15 template, TAG stop codon); format: biochemical; details: 50 µmol/L; gel, one of two replicates
# Procedure: Toeprinting experiments using the yrbA-fs15 DNA template with a TAG stop codon were performed in the NEB classic PURExpress system (New England Biolabs)[21] as described above. The template was prepared by PCR[21] by combining the overlapping primers T7, T7-IR-AUG, IR-yrbA-fs15-RF1 (for TAG), post-NV1, and NV1, rendering the sequence:
# […](TAG)[…] (ORF sequence is underlined). The peptides Api137 and Api88 were added from stock solutions in water to a final concentration of 50 µM.
# 50S subunit = molecular target: T1, 50S subunit (Escherichia coli, UniProt P0A7M6+P0ADZ0+P60723+P61175); experiment: Fluorescence polarization binding, 50S subunit; design: species or system E. coli
# T1 construct: Ribosomes were isolated from the E. coli strain MRE600; made in house; native subunits isolated in house
# Procedure: Several hundred grams of log-phase cells were commercially produced and purchased. Cells were washed in buffer A (20 mmol/L HEPES (pH 7.6), 6 mmol/L MgAc2, 30 mmol/L AcOK, 4 mmol/L ß-mercaptoethanol) and lysed in an M-110L microfluidizer (Microfluidics) at 17,000 psi and 4 °C. Cell debris was removed by low-speed centrifugation (15,000× g, 10 min, 4 °C) to obtain S30 lysate. Crude ribosomes, mostly containing 70S ribosomes, were pelleted by ultracentrifugation (40,000× g, 17 h, 4 °C) and resuspended in buffer A. The 70S ribosomes were separated from 30S and 50S subunits by zonal ultracentrifugation (Beckman Ti-15; 6–40% sucrose gradient in buffer A, 44,000× g, 16 h, 4 °C). The 70S-containing fractions were collected, and the ribosomes were sedimented by ultracentrifugation (40,000× g, 17 h, 4 °C). Since these 70S ribosomes still contained tRNAs and mRNA, they were resuspended in buffer B (20 mmol/L HEPES (pH 7.6), 1 mmol/L MgAc2, 0.2 mol/L NH4Ac, 4 mmol/L ß-mercaptoethanol), which allows for dissociation into 30S and 50S subunits, and subjected to a second zonal centrifugation (Beckman Ti-15, 44,000× g, 16 h, 4 °C), but this time in a 6–40% sucrose gradient prepared in buffer B. Fractions containing 30S and 50S subunits were collected, sedimented by ultracentrifugation (40,000× g, 17 h, 4 °C), resuspended in buffer A, aliquoted, shock-frozen in liquid nitrogen, and stored at −80 °C.
# Dissociation constants (Kd) were determined using purified 70S ribosome, 50S or 30S subunit and cf-labeled peptides in ribosome preparation buffer. Briefly, black 384-well plates (flat bottom, 781209, Greiner Bio-One GmbH) were blocked with casein (0.5%, w/v) in PBS containing 0.05% (v/v) Tween 20 at 4 °C overnight and washed three times with phosphate buffer. A 2-fold dilution series (22 steps) of pure 70S ribosome, 50S or 30S subunit (10 μL per well) in ribosome preparation buffer was prepared in a black 384-well plate. The cf-labeled peptide was dissolved in ribosome preparation buffer (10 μL, 40 nmol/L), added to each well, centrifuged (500 x g, 2 min), and incubated at 28 ± 1 °C for 90 min. Fluorescence polarization was measured on a […]^TM microplate reader (Beckman Coulter, Krefeld, Germany) in the top reading position (λexc = 485 nm, λem = 535 nm). Data were fitted to a nonlinear dose-response logistic transition equation [y = y0 + a/(1 + (x/x0)b)] using the Levenberg-Marquardt algorithm, with Kd represented by the x0 coefficients (GraphPad Prism for Windows v. 10.1.2, San Diego, CA, USA).
# Gram-negative bacteria = details: cited from earlier work
# Description: Here we have focused on two structurally modified versions of apidaecin 1b ([…]), which was originally isolated from the western honeybee (Apis mellifera).
# recombinant TF = details: fluorescence polarization; cited from earlier work
# Description: Binding sites two and three are close to uL23 and uL29, which is also supported by Api88(Y7B) cross-links. These ribosomal proteins are located adjacent to the PET exit and are binding hubs for the molecular chaperone trigger factor (TF)[34] and the signal recognition particle (SRP), a universally conserved and essential cellular machinery that directs proteins destined for membrane integration to the plasma membrane[35],[36]. This co-translational targeting is initiated by a hydrophobic signal sequence in the nascent protein chain recognized by SRP as it exits the PET. It is appealing to hypo ...
smiles,measurement,setting,value
CC[C@H](C)[C@H](NC(=O)[C@H](Cc1ccc(O)cc1)NC(=O)[C@@H](NC(=O)[C@@H]1CCCN1C(=O)[C@H](CCCNC(=N)N)NC(=O)[C@H](CC(N)=O)NC(=O)[C@H](CC(N)=O)NC(=O)[C@H](CCCN)N=C(N(C)C)N(C)C)C(C)C)C(=O)N1CCC[C@H]1C(=O)N[C@@H](CCCNC(=N)N)C(=O)N1CCC[C@H]1C(=O)N[C@@H](CCCNC(=N)N)C(=O)N1CCC[C@H]1C(=O)N1CCC[C@H]1C(=O)N[C@@H](Cc1c[nH]cn1)C(=O)N1CCC[C@H]1C(=O)N[C@@H](CCCNC(=N)N)C(=O)N[C@@H](CC(C)C)C(=O)O [Api137] ({Orn(α-tetramethylguanidino)}-NNRPVYIPRPRPPHPRL-OH),production of sfGFP reduced down to,"purified 70S ribosomes; absence of RF1, 50 µmol/L",~ 60%
same,share of inhibitory effect based on a RF1-independent mechanism,"purified 70S ribosomes; in vitro protein translation, with vs without RF1",half of the inhibitory effect
same,toeprinting band at the UAG stop codon,[1],intense toeprinting band
same,Kd,"50S subunit; apparent Kd, cf-labeled PrAMP (10 μL, 40 nmol/L), ribosome preparation buffer pH 7.6, 28 °C, 90 min, mean of triplicates",2180 ± 110 nM
same,Kd for 50S subunit lower than for 70S ribosome,"50S subunit; ratio 70S / 50S, cf-labeled",two-
same,antimicrobial activity (Api137 and Api88 compared),Gram-negative bacteria; Api137 and Api88,comparable level of antimicrobial activity
same,antibacterial activity,Gram-negative bacteria; against Gram-negative bacteria,enhanced antibacterial activity
same,Kd,recombinant TF,> 100000 nM
